This experiment deals with SARS-CoV-2 main protease (M^pro) (Severe acute respiratory syndrome coronavirus 2, UniProt P0DTD1). As to the kind of experiment: Rapid-Fire MS Biochemical Assay measuring Mpro activity (5 nM Mpro). To be noted: Mpro inhibition, 5 μM substrate peptide, 120 min.
Where [1] appears, read: Table 1B, read-out: Rapid-Fire Assay IC50.
[2] abbreviates: Rapid-Fire Assay IC50, Table 1B.

Molecules are shown by their SMILES. Like-named read-outs stand apart in the source and are kept apart here.

Regarding `Cc1ccc(C(F)(F)F)nc1N1C[C@H](C#N)N(c2cncc3ccccc23)C1=O` (single isomer, unassigned) [Compound 82a], the IC50 under setting [1] fell in the range of 20 to 200 nM.

As to `N#C[C@@H]1CN(c2ccc(OC(F)F)cc2)C(=O)N1c1cncc2ccccc12` (single isomer, unassigned) [Compound 71b], the IC50 under setting [1] is more than 1000 nM.

For the compound `N#CC1CN(C2CN(CC(F)(F)F)C2)C(=O)N1c1cncc2ccccc12` (racemic) [Compound 133, 3-(isoquinolin-4-yl)-2-oxo-1-(1-(2,2,2-trifluoroethyl)azetidin-3-yl)imidazolidine-4-carbonitrile], the IC50 under setting [1] is less than 20 nM.

With `N#CC1CN(C2CC(O)(C(F)(F)F)C2)C(=O)N1c1cncc2ccccc12` (racemic) [Compound 28, 1-(3-hydroxy-3-(trifluoromethyl)cyclobutyl)-3-(isoquinolin-4-yl)-2-oxoimidazolidine-4-carbonitrile], the IC50 under setting [1] lay in the range of 20 to 200 nM.

On to `N#C[C@H]1CN([C@@H]2CCN(CCO)C2)C(=O)N1c1cncc2ccccc12` (single isomer, unassigned) [Compound 46a], for which the IC50 under setting [1] is more than 1000 nM.

For `Cn1cc(N2C[C@H](C#N)N(c3cncc4ccccc34)C2=O)cn1` (single isomer, unassigned) [Compound 65a], the IC50 under setting [1] lay in the range of 20 to 200 nM.

Regarding `Cc1cnc(C(F)(F)F)nc1N1C[C@@H](C#N)N(c2cncc3ccccc23)C1=O` (single isomer, unassigned) [Compound 62b], the IC50 under setting [1] was more than 1000 nM.

Take `CS(=O)(=O)c1ccc2cncc(N3C(=O)N(c4cccc(Cl)c4)C[C@H]3C#N)c2c1` (single isomer, unassigned) [Compound 37b]: the IC50 under setting [1] was more than 1000 nM.

On to `COc1ncc(C(F)(F)F)cc1N1C[C@@H](C#N)N(c2cncc3ccccc23)C1=O` (single isomer, unassigned) [Compound 100b], for which the IC50 under setting [1] lay within 200 to 1000 nM.

For `Cc1cnc(C(F)(F)F)nc1N1C[C@H](C#N)N(c2cncc3ccccc23)C1=O` (single isomer, unassigned) [Compound 62a], the IC50 under setting [1] lay within 200 to 1000 nM.

Turning to `N#C[C@@H]1CN(C2CN(S(=O)(=O)C(F)(F)F)C2)C(=O)N1c1cncc2ccccc12` (single isomer, unassigned) [Compound 129b], the IC50 under setting [1] was more than 1000 nM.

`N#Cc1cc(Cl)ccc1N1C[C@@H](C#N)N(c2cncc3ccccc23)C1=O` (single isomer, unassigned) [Compound 60b]: the IC50 under setting [1] lay in the range of 200 to 1000 nM.

Turning to `N#C[C@@H]1CN(C2CN(C3CC3)C2)C(=O)N1c1cncc2ccccc12` (single isomer, unassigned) [Compound 136b], under setting [1], the IC50 is more than 1000 nM.

Regarding `N#C[C@H]1CN([C@H]2CC[C@H](C(F)(F)F)CC2)C(=O)N1c1cncc2ccccc12` [Compound 128a, (R)-3-(isoquinolin-4-yl)-2-oxo-1-((1 r,4R)-4-(trifluoromethyl)cyclohexyl)imidazolidine-4-carbonitrile], under setting [1], the half-maximal inhibitory concentration (IC50) is less than 20 nM.

Regarding `Cc1cc(Cl)cnc1N1C[C@@H](C#N)N(c2cncc3ccccc23)C1=O` (single isomer, unassigned) [Compound 80b], the IC50 under setting [1] is more than 1000 nM.

With `N#C[C@@H]1CN(c2ccc(F)c(F)c2)C(=O)N1c1cncc2ccccc12` (single isomer, unassigned) [Compound 72b], under setting [1], the IC50 lay in the range of 200 to 1000 nM.

As to `COc1nc(C(F)(F)F)ccc1N1C[C@@H](C#N)N(c2cncc3ccccc23)C1=O` (single isomer, unassigned) [Compound 95b], the IC50 under setting [1] was more than 1000 nM.

As to `N#C[C@H]1CN(c2ncc(C(F)(F)F)cn2)C(=O)N1c1cncc2ccccc12` (single isomer, unassigned) [Compound 42a], the IC50 under setting [1] is less than 20 nM.

Turning to `N#C[C@H]1CN(c2ccc(C(F)(F)F)nn2)C(=O)N1c1cncc2ccccc12` (single isomer, unassigned) [Compound 81a], under setting [1], the IC50 was less than 20 nM.

Regarding `COc1ccc(C(F)(F)F)nc1N1C[C@@H](C#N)N(c2cncc3ccccc23)C1=O` (single isomer, unassigned) [Compound 47b], under setting [1], the IC50 is more than 1000 nM.

On to `CC(C)[C@H]1C[C@@H](N2C[C@@H](C#N)N(c3cncc4ccccc34)C2=O)C1` [Compound 123c, (S)-1-((1s,3R)-3-isopropylcyclobutyl)-3-(isoquinolin-4-yl)-2-oxoimidazolidine-4-carbonitrile], for which the IC50 under setting [1] is more than 1000 nM.

Regarding `CC(C)[C@H]1C[C@H](N2C[C@H](C#N)N(c3cncc4ccccc34)C2=O)C1` [Compound 123b, (R)-1-((1r,3R)-3-isopropylcyclobutyl)-3-(isoquinolin-4-yl)-2-oxoimidazolidine-4-carbonitrile], the IC50 under setting [1] was less than 20 nM.

For the compound `N#C[C@H]1CN(c2cc(F)ccc2F)C(=O)N1c1cncc2ccccc12` (single isomer, unassigned) [Compound 109a], the IC50 under setting [1] is less than 20 nM.

As to `N#C[C@@H]1CN(c2cccc3cn[nH]c23)C(=O)N1c1cncc2ccccc12` (single isomer, unassigned) [Compound 63b], the IC50 under setting [1] is more than 1000 nM.

With `N#C[C@@H]1CN([C@@H]2CCN(CCC(F)(F)F)C2)C(=O)N1c1cncc2ccccc12` (single isomer, unassigned) [Compound 26b], the IC50 under setting [1] was more than 1000 nM.

Take `C[C@H]1[C@H](C#N)N(c2cncc3ccccc23)C(=O)N1c1cccc(Cl)c1` (single isomer, unassigned) [Compound 43a]: the IC50 under setting [1] was less than 20 nM.

As to `N#Cc1cccc(N2C[C@H](C#N)N(c3cncc4ccccc34)C2=O)c1` (single isomer, unassigned) [Compound 52a], the concentration for half-maximal inhibition (IC50) under setting [1] is less than 20 nM.

Regarding `N#CC1CN(c2ccc(F)cc2F)C(=O)N1c1cncc2ccccc12` (racemic) [Compound 66, 1-(2,4-difluorophenyl)-3-(isoquinolin-4-yl)-2-oxoimidazolidine-4-carbonitrile], under setting [1], the IC50 fell in the range of 20 to 200 nM.

`N#C[C@@H]1CN(c2cccc(OC(F)F)c2)C(=O)N1c1cncc2ccccc12` (single isomer, unassigned) [Compound 89b]: the IC50 under setting [1] was more than 1000 nM.

Consider `CC(=O)N1CC(N2C[C@@H](C#N)N(c3cncc4ccccc34)C2=O)C1` (single isomer, unassigned) [Compound 134b], for which the IC50 under setting [1] is more than 1000 nM.

As for `N#C[C@H]1CN(c2ccc(F)c(F)c2)C(=O)N1c1cncc2ccccc12` (single isomer, unassigned) [Compound 72a], the IC50 under setting [1] was less than 20 nM.

Take `N#C[C@H]1CN(c2ccc(F)c(Cl)c2)C(=O)N1c1cncc2ccccc12` (single isomer, unassigned) [Compound 87a]: the IC50 under setting [1] was less than 20 nM.

Regarding `N#C[C@H]1CN(c2cccc(F)n2)C(=O)N1c1cncc2ccccc12` (single isomer, unassigned) [Compound 61a], the IC50 under setting [1] is 20 to 200 nM.

On to `N#C[C@@H]1CN([C@H]2C[C@@H](C3CC3)C2)C(=O)N1c1cncc2ccccc12` [Compound 124d, (S)-1-((1s,3R)-3-cyclopropylcyclobutyl)-3-(isoquinolin-4-yl)-2-oxoimidazolidine-4-carbonitrile], for which, under setting [1], the IC50 was more than 1000 nM.

`N#C[C@H]1CN(c2cccc(Cl)c2)C(=O)N1c1cncc2ccc(C(=O)O)cc12` (single isomer, unassigned) [Compound 33a]: under setting [1], the IC50 is less than 20 nM.

In the case of `Cc1c[nH]c(N2C[C@H](C#N)N(c3cncc4ccccc34)C2=O)n1` (single isomer, unassigned) [Compound 118a], under setting [1], the IC50 was 200 to 1000 nM.

Consider `CC(C)(O)c1cccc(N2C[C@H](C#N)N(c3cncc4ccccc34)C2=O)c1` (single isomer, unassigned) [Compound 69a], for which the IC50 under setting [1] lay in the range of 20 to 200 nM.

In the case of `COc1cc(C#N)ccc1N1CC(C#N)N(c2cncc3ccccc23)C1=O` (racemic) [Compound 19, 1-(4-cyano-2-methoxyphenyl)-3-(isoquinolin-4-yl)-2-oxoimidazolidine-4-carbonitrile], the IC50 under setting [1] lay in the range of 200 to 1000 nM.

Regarding `N#CC1CN(c2cccc(Cl)c2)C(=O)N1c1cncc2ccc(C(N)=O)cc12` (centres unmarked) [Compound 35, 4-(3-(3-chlorophenyl)-5-cyano-2-oxoimidazolidin-1-yl)isoquinoline-6-carboxamide], under setting [1], the half-inhibitory concentration (IC50) was less than 20 nM.

For the compound `N#Cc1cnc(C(F)(F)F)cc1N1C[C@@H](C#N)N(c2cncc3ccccc23)C1=O` (single isomer, unassigned) [Compound 117b], the IC50 under setting [1] was in the range of 200 to 1000 nM.

On to `N#CC1CN(C2CC(F)(F)C2)C(=O)N1c1cncc2ccccc12` (racemic) [Compound 27, 1-(3,3-difluorocyclobutyl)-3-(isoquinolin-4-yl)-2-oxoimidazolidine-4-carbonitrile], for which, under setting [1], the IC50 lay in the range of 20 to 200 nM.

Turning to `COc1ccc(C#N)cc1N1C[C@@H](C#N)N(c2cncc3ccccc23)C1=O` (single isomer, unassigned) [Compound 15b], under setting [1], the IC50 was more than 1000 nM.

As for `COc1cc(C#N)ccc1N1C[C@@H](C#N)N(c2cncc3ccccc23)C1=O` (single isomer, unassigned) [Compound 19b], the IC50 under setting [1] was more than 1000 nM.

As to `COc1ccc(Cl)cc1N1C[C@H](C#N)N(c2cncc3ccccc23)C1=O` (single isomer, unassigned) [Compound 115a], under setting [1], the IC50 was less than 20 nM.

Regarding `N#C[C@@H]1CN(C2CN(CC(F)(F)F)C2)C(=O)N1c1cncc2ccccc12` (single isomer, unassigned) [Compound 133b], under setting [1], the IC50 lay within 20 to 200 nM.

`CC(C)n1cc(N2C[C@H](C#N)N(c3cncc4ccccc34)C2=O)cn1` (single isomer, unassigned) [Compound 64a]: the IC50 under setting [1] was less than 20 nM.

Consider `N#C[C@@H]1CN(c2cncc(C(F)(F)F)c2)C(=O)N1c1cncc2ccccc12` (single isomer, unassigned) [Compound 104b], for which the IC50 under setting [1] was more than 1000 nM.

For `N#C[C@H]1CN(C2CN(S(=O)(=O)C3CC3)C2)C(=O)N1c1cncc2ccccc12` (single isomer, unassigned) [Compound 131a], the IC50 under setting [2] lay within 20 to 200 nM.

With `N#Cc1ccc(N2C[C@H](C#N)N(c3cncc4ccccc34)C2=O)cc1F` (single isomer, unassigned) [Compound 73a], the IC50 under setting [2] was less than 20 nM.

In the case of `N#Cc1ccc(N2C[C@@H](C#N)N(c3cncc4ccccc34)C2=O)cc1F` (single isomer, unassigned) [Compound 73b], under setting [2], the IC50 was in the range of 200 to 1000 nM.

Usually IC50 stands for the concentration that inhibits the measured activity by half.
